Assays:
ABUTH [1] = test: Pre-emergence herbicidal action against ABUTH; assay type: in vivo, Abutilon theophrasti; conditions: for Pre-emergence action against ABUTH (herbicidal activity): 80 g/ha, scored visually after 3 weeks vs untreated controls (100% = plants have died, 0% = like control plants); for Pre-emergence action against ABUTH (herbicidal activity in percent): dosage 20 g/ha, scored visually after 3 weeks vs untreated controls, 100% = plants have died, 0% = like control plants
Summary of the method: (§1)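 Seeds sown in sandy loam, soil-covered; compound sprayed on soil surface pre-emergence. Application: WP/EC, 600–800 l/ha, 0.2% wetting agent. Readout: visual % damage at 3 weeks.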

ALOMY = test: Pre-emergence herbicidal action against ALOMY; assay type: in vivo, Alopecurus myosuroides; conditions: 80 g/ha, pre-emergence, scored visually after 3 weeks vs untreated controls (100% = plants have died, 0% = like control plants)
Summary of the method: as §1

AMARE [2] = test: Pre-emergence herbicidal action against AMARE; assay type: in vivo, Amaranthus retroflexus
Summary of the method: as §1

ECHCG [3] = test: Pre-emergence herbicidal action against ECHCG; assay type: in vivo, Echinochloa crus-galli
Summary of the method: as §1

MATIN [4] = test: Pre-emergence herbicidal action against MATIN; assay type: in vivo, Matricaria inodora
Summary of the method: as §1

POLCO = test: Pre-emergence herbicidal action against POLCO; assay type: in vivo, Polygonum convolvulus; conditions: dosage 80 g/ha
Summary of the method: as §1

SETVI [5] = test: Pre-emergence herbicidal action against SETVI; assay type: in vivo, Setaria viridis; conditions: dosage 80 g/ha
Summary of the method: as §1

VERPE [6] = test: Pre-emergence herbicidal action against VERPE; assay type: in vivo, Veronica persica; conditions: dosage 80 g/ha
Summary of the method: as §1

VIOTR = test: Pre-emergence herbicidal action against VIOTR; assay type: in vivo, Viola tricolor
Summary of the method: as §1

DIGSA [7] = test: Pre-emergence herbicidal action against DIGSA; assay type: in vivo, Digitaria sanguinalis
Summary of the method: as §1

ABUTH [8] = test: Post-emergence herbicidal action against ABUTH; assay type: in vivo, Abutilon theophrasti; conditions: visual assessment about 3 weeks after treatment vs untreated controls
Summary of the method: (§2)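 Sandy loam, greenhouse; treatment 2–3 weeks after sowing, one-leaf stage. Aqueous suspension or emulsion from WP/EC sprayed on foliage (600–800 l/ha, 0.2% wetting agent). Readout: visual % action, ~3 weeks.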

AMARE [9] = test: Post-emergence herbicidal action against AMARE; assay type: in vivo, Amaranthus retroflexus; conditions: 20 g/ha, visual assessment about 3 weeks after treatment, 100% = plants have died, 0% = like control plants
Summary of the method: as §2

AVEFA [10] = test: Post-emergence herbicidal action against AVEFA; assay type: in vivo, Avena fatua; conditions: visual assessment about 3 weeks after treatment, 100% = plants have died, 0% = like control plants
Summary of the method: as §2

ECHCG [11] = test: Post-emergence herbicidal action against ECHCG; assay type: in vivo, Echinochloa crus-galli
Summary of the method: as §2

MATIN [12] = test: Post-emergence herbicidal action against MATIN; assay type: in vivo, Matricaria inodora; conditions: dosage 20 g/ha
Summary of the method: as §2

PHBPU = test: Post-emergence herbicidal action against PHBPU; assay type: in vivo, Pharbitis purpurea
Summary of the method: as §2

SETVI [13] = test: Post-emergence herbicidal action against SETVI; assay type: in vivo, Setaria viridis
Summary of the method: as §2

VERPE [14] = test: Post-emergence herbicidal action against VERPE; assay type: in vivo, Veronica persica; conditions: 20 g/ha
Summary of the method: as §2

DIGSA [15] = test: Post-emergence herbicidal action against DIGSA; assay type: in vivo, Digitaria sanguinalis; conditions: for Post-emergence action against DIGSA: 20 g/ha
Summary of the method: as §2

AVEFA [16] = test: Pre-emergence herbicidal action against AVEFA; assay type: in vivo, Avena fatua; conditions: 80 g/ha, pre-emergence
Summary of the method: as §1

[17] = 20 g/ha, scored visually after 3 weeks vs untreated controls, 100% = plants have died, 0% = like control plants
[18] = 80 g/ha, scored visually after 3 weeks vs untreated controls (100% = plants have died, 0% = like control plants)

Structure (SMILES)	Pre-emergence action against ABUTH (herbicidal activity) (ABUTH [1]) [%]	Pre-emergence action against ABUTH (herbicidal activity in percent) (ABUTH [1]) [%]	Pre-emergence action against ALOMY (herbicidal activity) (ALOMY) [%]	Pre-emergence action against AMARE in % (AMARE [2]; [17]) [%]	Pre-emergence action against AMARE in % (AMARE [2]; [18]) [%]	Pre-emergence action against ECHCG in % (ECHCG [3]; 80 g/ha) [%]	Pre-emergence action against MATIN in % (MATIN [4]; dosage 20 g/ha) [%]	Pre-emergence action against MATIN in % (MATIN [4]; dosage 80 g/ha) [%]	Pre-emergence action against POLCO in % (POLCO) [%]	Pre-emergence action against SETVI in % (SETVI [5]) [%]	Pre-emergence action against VERPE in % (VERPE [6]) [%]	Pre-emergence action against VIOTR in % (VIOTR; dosage 80 g/ha) [%]	Pre-emergence action against DIGSA in % (DIGSA [7]; dosage 20 g/ha) [%]	Pre-emergence action against DIGSA in % (DIGSA [7]; dosage 80 g/ha) [%]	Post-emergence action against ABUTH in % (ABUTH [8]; dosage 5 g/ha) [%]	Post-emergence action against ABUTH in % (ABUTH [8]; dosage 20 g/ha) [%]	Post-emergence action at 20 g/ha against AVEFA in % (AVEFA [10]) [%]	Post-emergence action against ECHCG in % (ECHCG [11]; dosage 5 g/ha) [%]	Post-emergence action against ECHCG in % (ECHCG [11]; dosage 20 g/ha) [%]	Post-emergence action against MATIN in % (MATIN [12]) [%]	also measured
Cc1c(C(=O)Nc2nnnn2C)ccc(C(F)F)c1C(=O)NCC(F)F [Example 1-49]	100	80	80	100	100	80	90	100	90	80	100	100	90	100	90	90	80	80	90	80	Post-emergence action at 20 g/ha against AMARE in % (AMARE [9]): 90%; Post-emergence action against PHBPU in % (PHBPU; dosage 5 g/ha): 80%; Post-emergence action against PHBPU in % (PHBPU; dosage 20 g/ha): 90%; Post-emergence action against SETVI in % (SETVI [13]; dosage 5 g/ha): 90%; Post-emergence action against SETVI in % (SETVI [13]; dosage 20 g/ha): 100%; Post-emergence action against VERPE in % (VERPE [14]): 90%; Post-emergence action against DIGSA in % (DIGSA [15]; 5 g/ha): 80%; Post-emergence action against DIGSA (DIGSA [15]): 90%
CCn1nnnc1NC(=O)c1ccc(C(F)(F)F)c(C(=O)NCC2CC2)c1C [Example 2-28]	100	100	90	100	100	100	100	100	90	100	80	100	100	100	80	80	90	80	80	80	Pre-emergence action against AVEFA in % (AVEFA [16]): 90%; Pre-emergence action against ECHCG in % (ECHCG [3]; 20 g/ha): 80%; Pre-emergence action against VIOTR in % (VIOTR; dosage 20 g/ha): 100%; Post-emergence action at 5 g/ha against AVEFA in % (AVEFA [10]; 5 g/ha): 80%; Post-emergence action against PHBPU in % (PHBPU; dosage 20 g/ha): 80%; Post-emergence action against DIGSA (DIGSA [15]): 80%
